According to patent US8247211B2, “Glycopeptide antibiotics” (American Cyanamid Company, priority 2001, dated 2012):
≈ marks a conversion by molar mass, not a printed value.

Columns and labels:
[1] = system: Staphylococcus aureus-SMITH (GC 4543); test: Acute lethal infection in mice (ED50); format: in vivo; conditions: female CD-1 mice, intraperitoneal challenge, intravenous dose 30 min. after infection, 7 day survival ratios
Method in brief: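 ED50 derived from pooled 7-day survival in three separate experiments, five mice per dose level. Single intravenous dose 30 min after intraperitoneal infection of female CD-1 mice with enough bacteria to kill untreated animals in 24-48 h.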

[2] = system: Staphylococcus sp.; test: In vitro antibacterial evaluation: minimum inhibitory concentration (MIC), broth dilution method; format: cell-based
Method in brief: (§1)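 Susceptibility determined by NCCLS-recommended broth dilution (M7-A2), Muller-Hinton II […]. Concentration span 64-0.06 μg/mL, inoculum 5×10^5 CFU/mL. Isolates include strains resistant to methicillin, penicillin and/or vancomycin.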

[3] = system: Streptococcus sp.; test: as above; format: cell-based; conditions: 18 hours at 35° C.
Method in brief: as §1

[4] = system: Escherichia coli; test: as above; format: cell-based; conditions: 18 hours at 35° C.
Method in brief: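 Broth dilution per NCCLS M7-A2 in Muller-Hinton II […], inoculum 5×10^5 CFU/mL, antibiotic tested over 64-0.06 μg/mL. MIC is taken as the lowest concentration that inhibits growth. Panel includes recent clinical isolates resistant to methicillin, penicillin and/or vancomycin.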

[5] = system: Enterococcus sp.; test: as above; format: cell-based; conditions: 18 hours at 35° C.
Method in brief: as §1

[6] = format: in vivo; conditions: mice, 20 mg/kg intravenously daily for 9 days, serum on day 10
Method: 20-day-old CD-1 mice were divided into a vehicle control group (5 mice) and a treatment group (5 mice). Samples of glycopeptide antibiotics were administered at 20 mg/kg intravenously daily for 9 days. Animals were necropsied on day 10 Sera were analyzed for BUN (blood urea nitrogen), creatinine, AST (aspartic aminotransferase), and ALT (alanine aminotransferase) by routine, standard, automated methods using an Hitachi 747 chemistry analyzer.

[7] = Anatomic pathology (heart and kidney histopathology) in mice; format: in vivo, CD-1 mice; conditions: 20 mg/kg intravenously daily for 9 days, microscopic histopathology on day 10
Method in brief: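 Histopathology on H&E-stained, paraffin-embedded sections, subjectively scored (slight, mild, moderate, marked, severe) relative to untreated controls. Dosing: glycopeptide antibiotics 20 mg/kg intravenously once daily ×9 days in 20-day-old CD-1 mice, n=5 per group including vehicle.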

[8] = broth dilution, inoculum 5×10^5 CFU/mL

N=C1NCC(C(O)C2NC(=O)C(Cc3ccc(OC4OC(CO)C(OC5OC6COC7(OC6C(O)C5O)C5CC6CC(C5)CC7C6)C(O)C4O)cc3)NC(=O)C(Cc3ccccc3)NC(=O)CNC(=O)C(CO)NC(=O)C(C(O)C3CNC(=N)N3C3OC(CO)C(O)C(O)C3O)NC2=O)N1 (centres unmarked) [Example 220]
median effective dose (ED50), Staphylococcus aureus-SMITH (GC 4543) [1]: 0.19 mg/kg
MIC Staphylococcus aureus (ATCC 29213) ([2]; strain ATCC 29213): 0.5 mg/L (≈ 0.354 µM)
MIC Staphylococcus aureus (GC 1131) ([2]; strain GC 1131): 1 mg/L (≈ 0.707 µM)
MIC Staphylococcus aureus (GC 3051) ([2]; strain GC 3051): 1 mg/L (≈ 0.707 µM)
MIC Staphylococcus aureus (GC 3053) ([2]; strain GC 3053): 1 mg/L (≈ 0.707 µM)
MIC Staphylococcus aureus (GC 4541) ([2]; strain GC 4541): 1 mg/L (≈ 0.707 µM)
MIC Staphylococcus aureus (GC 4542) ([2]; strain GC 4542): 0.5 mg/L (≈ 0.354 µM)
MIC Staphylococcus aureus-SMITH (GC 4543) ([2]; strain GC 4543): 1 mg/L (≈ 0.707 µM)
MIC Staphylococcus aureus (GC 4544) ([2]; strain GC 4544): 1 mg/L (≈ 0.707 µM)
MIC Staphylococcus aureus (GC 4545) ([2]; strain GC 4545): 0.5 mg/L (≈ 0.354 µM)
MIC Staphylococcus haemolyticus (GC 4546) ([2]; strain GC 4546): 0.25 mg/L (≈ 0.177 µM)
MIC Coagulase Negative Staphylococcus (GC 4547) ([2]; strain GC 4547): 0.5 mg/L (≈ 0.354 µM)
MIC Coagulase Negative Staphylococcus (GC 4548) ([2]; strain GC 4548): 0.25 mg/L (≈ 0.177 µM)
MIC Coagulase Negative Staphylococcus (GC 4549) ([2]; strain GC 4549): 0.25 mg/L (≈ 0.177 µM)
MIC Coagulase Negative Staphylococcus (GC 4551) ([2]; strain GC 4551): 0.5 mg/L (≈ 0.354 µM)
MIC Streptococcus agalactiae (GC 4564) ([3]; Streptococcus agalactiae (GC 4564)): <0.06 mg/L
MIC Streptococcus pneumoniae (ATCC 6301) ([3]; Streptococcus pneumoniae (ATCC 6301)): <0.06 mg/L
MIC Streptococcus pneumoniae (GC 1894) ([3]; Streptococcus pneumoniae (GC 1894)): <0.06 mg/L
MIC Streptococcus pneumoniae (GC 4565) ([3]; Streptococcus pneumoniae (GC 4565)): <0.06 mg/L
MIC Streptococcus pyogenes (GC 4563) ([3]; Streptococcus pyogenes (GC 4563)): <0.06 mg/L
MIC Streptococcus agalactiae (GC 4564) [3, 8]: <0.06 mg/L
MIC Streptococcus pneumoniae (ATCC 6301) [3, 8]: <0.06 mg/L
MIC Streptococcus pneumoniae (GC 1894) [3, 8]: <0.06 mg/L
MIC Streptococcus pneumoniae (GC 4565) [3, 8]: <0.06 mg/L
MIC Streptococcus pyogenes (GC 4563) [3, 8]: <0.06 mg/L
MIC Escherichia coli (ATCC 25922) ([4]; Escherichia coli (ATCC 25922)): 32 mg/L (≈ 22.6 µM)
MIC Escherichia coli (GC 4559) ([4]; Escherichia coli (GC 4559)): 16 mg/L (≈ 11.3 µM)
MIC Escherichia coli (GC 4560) ([4]; Escherichia coli (GC 4560)): 0.5 mg/L (≈ 0.354 µM)
MIC Enterococcus avium (GC 4558) ([5]; Enterococcus avium (GC 4558)): 2 mg/L (≈ 1.41 µM)
MIC Enterococcus faecalis (ATCC 29212) ([5]; Enterococcus faecalis (ATCC 29212)): 2 mg/L (≈ 1.41 µM)
MIC Enterococcus faecalis (GC 2242) ([5]; Enterococcus faecalis (GC 2242)): 1 mg/L (≈ 0.707 µM)
MIC Enterococcus faecalis (GC 2691) ([5]; Enterococcus faecalis (GC 2691)): 2 mg/L (≈ 1.41 µM)
MIC Enterococcus faecalis (GC 3059) ([5]; Enterococcus faecalis (GC 3059)): 2 mg/L (≈ 1.41 µM)
MIC Enterococcus faecalis (GC 4552) ([5]; Enterococcus faecalis (GC 4552)): 2 mg/L (≈ 1.41 µM)
MIC Enterococcus faecalis (GC 4553) ([5]; Enterococcus faecalis (GC 4553)): 1 mg/L (≈ 0.707 µM)
MIC Enterococcus faecalis (GC 4554) ([5]; Enterococcus faecalis (GC 4554)): 2 mg/L (≈ 1.41 µM)
MIC Enterococcus faecalis (GC 6189) ([5]; Enterococcus faecalis (GC 6189)): 1 mg/L (≈ 0.707 µM)
MIC Enterococcus faecium (GC 2243) ([5]; Enterococcus faecium (GC 2243)): 1 mg/L (≈ 0.707 µM)
MIC Enterococcus faecium (GC 4556) ([5]; Enterococcus faecium (GC 4556)): 1 mg/L (≈ 0.707 µM)
MIC Enterococcus faecium (GC 4557) ([5]; Enterococcus faecium (GC 4557)): 1 mg/L (≈ 0.707 µM)
MIC Enterococcus avium (GC 4558) [5, 8]: 2 mg/L (≈ 1.41 µM)
MIC Enterococcus faecalis (ATCC 29212) [5, 8]: 2 mg/L (≈ 1.41 µM)
MIC Enterococcus faecalis (GC 2242) [5, 8]: 1 mg/L (≈ 0.707 µM)
MIC Enterococcus faecalis (GC 2691) [5, 8]: 2 mg/L (≈ 1.41 µM)
MIC Enterococcus faecalis (GC 3059) [5, 8]: 2 mg/L (≈ 1.41 µM)
MIC Enterococcus faecalis (GC 4552) [5, 8]: 2 mg/L (≈ 1.41 µM)
MIC Enterococcus faecalis (GC 4553) [5, 8]: 1 mg/L (≈ 0.707 µM)
MIC Enterococcus faecalis (GC 4554) [5, 8]: 2 mg/L (≈ 1.41 µM)
MIC Enterococcus faecalis (GC 6189) [5, 8]: 1 mg/L (≈ 0.707 µM)
MIC Enterococcus faecium (GC 2243) [5, 8]: 1 mg/L (≈ 0.707 µM)
MIC Enterococcus faecium (GC 4556) [5, 8]: 1 mg/L (≈ 0.707 µM)
MIC Enterococcus faecium (GC 4557) [5, 8]: 1 mg/L (≈ 0.707 µM)
Clinical Chemistry (Day 10) % of Control, BUN [6]: 149%
Clinical Chemistry (Day 10) % of Control, Creatinine [6]: 121%
Anatomical Pathology (Day 10), Heart [7]: 0
Anatomical Pathology (Day 10), Kidney [7]: +++
